{"source": "patent US20250243196A1", "about": "“CITRON KINASE INHIBITORS” (The Cleveland Clinic Foundation, priority 2021, published 2025)", "experiment_in_all_cases": "KinaseProfiler panel", "assay_type_in_all_cases": "biochemical", "conditions_in_all_cases": "activity remaining", "key": {"AMPKα1(h)": {"target": "AMPKα1(h) (Homo sapiens (Human), UniProt Q13131)", "design": "dose or concentration left out as unconfirmed"}, "DYRK1A(h)": {"target": "DYRK1A(h) (Homo sapiens (Human), UniProt Q13627)", "design": "dose or concentration left out as unconfirmed"}, "SIK(h)": {"target": "SIK(h) (Homo sapiens (Human), UniProt P57059)", "sequence (P57059 whole entry)": "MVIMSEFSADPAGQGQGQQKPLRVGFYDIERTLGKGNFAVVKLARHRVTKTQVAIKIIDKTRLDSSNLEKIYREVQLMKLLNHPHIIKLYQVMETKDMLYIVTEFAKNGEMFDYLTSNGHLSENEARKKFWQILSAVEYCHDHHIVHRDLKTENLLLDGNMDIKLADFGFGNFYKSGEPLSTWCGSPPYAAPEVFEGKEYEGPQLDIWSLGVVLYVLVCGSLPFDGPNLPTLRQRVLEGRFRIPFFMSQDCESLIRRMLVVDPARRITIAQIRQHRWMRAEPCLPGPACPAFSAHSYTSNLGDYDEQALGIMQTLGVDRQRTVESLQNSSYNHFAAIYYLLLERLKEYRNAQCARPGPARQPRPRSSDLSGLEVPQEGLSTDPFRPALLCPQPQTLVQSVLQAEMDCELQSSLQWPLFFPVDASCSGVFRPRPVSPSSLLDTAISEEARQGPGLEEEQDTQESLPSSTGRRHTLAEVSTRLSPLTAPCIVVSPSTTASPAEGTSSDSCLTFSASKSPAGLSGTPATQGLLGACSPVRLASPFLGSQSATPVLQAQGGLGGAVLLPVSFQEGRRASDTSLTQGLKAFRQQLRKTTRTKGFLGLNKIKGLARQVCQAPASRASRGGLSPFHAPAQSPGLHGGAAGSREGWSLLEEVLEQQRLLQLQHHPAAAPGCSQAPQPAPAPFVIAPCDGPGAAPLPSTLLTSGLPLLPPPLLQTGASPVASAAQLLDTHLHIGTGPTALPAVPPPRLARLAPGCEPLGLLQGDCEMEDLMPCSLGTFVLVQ", "design": "dose or concentration left out as unconfirmed"}, "CDK12/cyclinK(h)": {"target": "CDK12/cyclinK(h) (Homo sapiens (Human), UniProt Q9NYV4)", "design": "dose or concentration left out as unconfirmed"}, "HPK1(h)": {"target": "HPK1(h) (Homo sapiens (Human), UniProt Q92918)", "sequence (Q92918 whole entry)": "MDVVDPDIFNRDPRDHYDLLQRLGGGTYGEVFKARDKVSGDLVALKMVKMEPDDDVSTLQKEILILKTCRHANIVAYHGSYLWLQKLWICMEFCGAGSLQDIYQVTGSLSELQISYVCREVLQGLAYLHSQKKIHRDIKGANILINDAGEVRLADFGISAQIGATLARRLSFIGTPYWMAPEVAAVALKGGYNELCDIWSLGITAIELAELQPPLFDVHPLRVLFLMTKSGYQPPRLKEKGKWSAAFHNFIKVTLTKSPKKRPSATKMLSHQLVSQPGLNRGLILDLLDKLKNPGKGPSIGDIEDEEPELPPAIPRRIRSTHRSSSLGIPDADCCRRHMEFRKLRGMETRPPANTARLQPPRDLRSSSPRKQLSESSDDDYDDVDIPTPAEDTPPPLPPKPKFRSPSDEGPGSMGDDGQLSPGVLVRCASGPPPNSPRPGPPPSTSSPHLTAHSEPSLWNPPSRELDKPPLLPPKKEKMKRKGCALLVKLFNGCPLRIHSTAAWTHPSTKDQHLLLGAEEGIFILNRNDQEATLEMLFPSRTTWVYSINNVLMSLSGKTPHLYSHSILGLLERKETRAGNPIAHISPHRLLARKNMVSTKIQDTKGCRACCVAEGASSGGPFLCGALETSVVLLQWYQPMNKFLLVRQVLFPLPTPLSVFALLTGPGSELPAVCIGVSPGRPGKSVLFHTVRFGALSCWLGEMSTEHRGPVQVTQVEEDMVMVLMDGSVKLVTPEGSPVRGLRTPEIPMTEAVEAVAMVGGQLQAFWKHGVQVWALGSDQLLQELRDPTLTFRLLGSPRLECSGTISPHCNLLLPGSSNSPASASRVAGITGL", "design": "dose or concentration left out as unconfirmed"}, "BTK(h)": {"target": "BTK(h) (Homo sapiens (Human), UniProt Q06187)", "sequence (Q06187 whole entry)": "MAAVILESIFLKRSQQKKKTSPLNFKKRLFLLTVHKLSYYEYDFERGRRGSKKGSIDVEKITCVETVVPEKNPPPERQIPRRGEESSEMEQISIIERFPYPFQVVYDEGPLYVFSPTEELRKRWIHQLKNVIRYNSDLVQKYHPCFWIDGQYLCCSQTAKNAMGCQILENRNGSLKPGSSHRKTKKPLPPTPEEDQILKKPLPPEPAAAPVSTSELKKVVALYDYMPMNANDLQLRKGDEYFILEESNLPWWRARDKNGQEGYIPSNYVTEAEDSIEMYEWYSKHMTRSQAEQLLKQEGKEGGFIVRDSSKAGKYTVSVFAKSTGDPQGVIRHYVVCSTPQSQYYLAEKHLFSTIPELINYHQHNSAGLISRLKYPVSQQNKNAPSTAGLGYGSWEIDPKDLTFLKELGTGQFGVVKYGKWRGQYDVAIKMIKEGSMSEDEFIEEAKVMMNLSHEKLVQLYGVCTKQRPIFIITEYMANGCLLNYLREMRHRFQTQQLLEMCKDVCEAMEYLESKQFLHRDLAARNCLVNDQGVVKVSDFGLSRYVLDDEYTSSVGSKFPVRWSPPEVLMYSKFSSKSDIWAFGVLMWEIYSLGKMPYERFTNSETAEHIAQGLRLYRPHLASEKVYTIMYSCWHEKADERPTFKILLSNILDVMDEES", "design": "dose or concentration left out as unconfirmed"}, "TAK1(h)": {"target": "TAK1(h) (Homo sapiens (Human), UniProt O43318)", "design": "dose or concentration left out as unconfirmed"}, "VRK1(h)": {"target": "VRK1(h) (Homo sapiens (Human), UniProt Q99986)", "design": "dose or concentration left out as unconfirmed"}, "JNK3(h)": {"target": "JNK3(h) (Homo sapiens (Human), UniProt P53779)", "sequence (P53779 whole entry)": "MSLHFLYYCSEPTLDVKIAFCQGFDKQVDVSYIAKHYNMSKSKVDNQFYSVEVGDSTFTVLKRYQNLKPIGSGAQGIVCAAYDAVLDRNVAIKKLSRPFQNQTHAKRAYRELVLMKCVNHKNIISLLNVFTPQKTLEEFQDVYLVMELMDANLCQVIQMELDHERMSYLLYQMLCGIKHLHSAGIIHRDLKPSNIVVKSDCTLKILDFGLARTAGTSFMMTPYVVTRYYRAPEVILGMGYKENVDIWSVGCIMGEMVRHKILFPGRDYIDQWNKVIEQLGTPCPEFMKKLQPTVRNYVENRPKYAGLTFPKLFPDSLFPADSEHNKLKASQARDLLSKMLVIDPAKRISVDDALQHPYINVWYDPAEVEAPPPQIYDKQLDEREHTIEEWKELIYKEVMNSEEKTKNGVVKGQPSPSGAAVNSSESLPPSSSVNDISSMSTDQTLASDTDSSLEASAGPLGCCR", "design": "dose or concentration left out as unconfirmed"}, "CaMKIIα(h)": {"target": "CaMKIIα(h) (Homo sapiens (Human), UniProt Q9UQM7)"}, "FGFR1(h)": {"target": "FGFR1(h) (Homo sapiens (Human), UniProt P11362)", "design": "dose or concentration left out as unconfirmed"}, "MLK2(h)": {"target": "MLK2(h) (Homo sapiens (Human), UniProt Q02779)", "sequence (Q02779 whole entry)": "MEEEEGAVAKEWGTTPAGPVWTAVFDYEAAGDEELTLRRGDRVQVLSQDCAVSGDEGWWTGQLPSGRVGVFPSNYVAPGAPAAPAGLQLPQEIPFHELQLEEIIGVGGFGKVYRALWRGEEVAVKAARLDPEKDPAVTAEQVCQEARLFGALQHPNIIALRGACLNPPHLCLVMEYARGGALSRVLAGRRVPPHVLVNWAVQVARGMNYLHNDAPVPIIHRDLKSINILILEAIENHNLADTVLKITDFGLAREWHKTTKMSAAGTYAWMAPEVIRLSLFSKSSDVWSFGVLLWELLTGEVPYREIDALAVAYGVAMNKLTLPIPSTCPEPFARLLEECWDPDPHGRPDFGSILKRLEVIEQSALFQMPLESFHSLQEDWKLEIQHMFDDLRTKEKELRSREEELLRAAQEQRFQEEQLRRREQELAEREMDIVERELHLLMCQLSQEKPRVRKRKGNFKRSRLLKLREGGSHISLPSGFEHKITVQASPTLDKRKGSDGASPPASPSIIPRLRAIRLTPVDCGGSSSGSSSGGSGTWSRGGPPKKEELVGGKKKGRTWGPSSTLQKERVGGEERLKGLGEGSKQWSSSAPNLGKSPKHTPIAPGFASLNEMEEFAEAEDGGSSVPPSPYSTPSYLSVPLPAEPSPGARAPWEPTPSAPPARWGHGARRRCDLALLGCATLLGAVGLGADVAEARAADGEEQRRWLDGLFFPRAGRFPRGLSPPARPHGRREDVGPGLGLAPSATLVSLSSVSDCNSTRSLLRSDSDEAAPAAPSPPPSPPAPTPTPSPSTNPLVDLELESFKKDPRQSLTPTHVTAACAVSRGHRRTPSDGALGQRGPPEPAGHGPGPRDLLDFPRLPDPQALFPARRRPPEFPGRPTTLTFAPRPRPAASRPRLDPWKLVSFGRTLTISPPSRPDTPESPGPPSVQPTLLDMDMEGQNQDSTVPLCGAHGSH", "design": "dose or concentration left out as unconfirmed"}, "TAO1(h)": {"target": "TAO1(h) (Homo sapiens (Human), UniProt Q7L7X3)", "design": "dose or concentration left out as unconfirmed"}, "mTOR(h)": {"target": "mTOR(h) (Homo sapiens (Human), UniProt P42345)", "design": "dose or concentration left out as unconfirmed"}, "ATR/ATRIP(h)": {"target": "ATR/ATRIP(h) (Homo sapiens (Human), UniProt Q13535)", "design": "dose or concentration left out as unconfirmed"}, "CK2(h)": {"target": "CK2(h) (Homo sapiens (Human), UniProt P68400)", "design": "dose or concentration left out as unconfirmed"}, "CK1γ3(h)": {"target": "CK1γ3(h) (Homo sapiens (Human), UniProt Q9Y6M4)", "sequence (Q9Y6M4 whole entry)": "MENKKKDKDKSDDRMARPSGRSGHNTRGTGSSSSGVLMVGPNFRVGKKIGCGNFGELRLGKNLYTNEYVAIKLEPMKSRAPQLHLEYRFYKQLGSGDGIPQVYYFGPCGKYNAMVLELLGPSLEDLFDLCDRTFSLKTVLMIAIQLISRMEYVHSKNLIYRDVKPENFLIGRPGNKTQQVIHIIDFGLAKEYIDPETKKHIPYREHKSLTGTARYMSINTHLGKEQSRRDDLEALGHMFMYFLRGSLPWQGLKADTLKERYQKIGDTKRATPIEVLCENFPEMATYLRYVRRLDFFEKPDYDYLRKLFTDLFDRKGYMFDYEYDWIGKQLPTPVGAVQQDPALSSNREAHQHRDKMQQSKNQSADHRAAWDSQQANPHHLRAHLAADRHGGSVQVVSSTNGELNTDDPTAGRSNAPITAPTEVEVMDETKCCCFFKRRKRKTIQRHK", "design": "dose or concentration left out as unconfirmed"}, "PASK(h)": {"target": "PASK(h) (Homo sapiens (Human), UniProt Q96RG2)", "design": "dose or concentration left out as unconfirmed"}, "DYRK2(h)": {"target": "DYRK2(h) (Homo sapiens (Human), UniProt Q92630)", "design": "dose or concentration left out as unconfirmed"}, "SRPK1(h)": {"target": "SRPK1(h) (Homo sapiens (Human), UniProt Q96SB4)", "design": "dose or concentration left out as unconfirmed"}, "CaMKIδ(h)": {"target": "CaMKIδ(h) (Homo sapiens (Human), UniProt Q8IU85)", "design": "dose or concentration left out as unconfirmed"}, "IRAK1(h)": {"target": "IRAK1(h) (Homo sapiens (Human), UniProt P51617)", "design": "dose or concentration left out as unconfirmed"}, "SIK2(h)": {"target": "SIK2(h) (Homo sapiens (Human), UniProt Q9H0K1)", "sequence (Q9H0K1 whole entry)": "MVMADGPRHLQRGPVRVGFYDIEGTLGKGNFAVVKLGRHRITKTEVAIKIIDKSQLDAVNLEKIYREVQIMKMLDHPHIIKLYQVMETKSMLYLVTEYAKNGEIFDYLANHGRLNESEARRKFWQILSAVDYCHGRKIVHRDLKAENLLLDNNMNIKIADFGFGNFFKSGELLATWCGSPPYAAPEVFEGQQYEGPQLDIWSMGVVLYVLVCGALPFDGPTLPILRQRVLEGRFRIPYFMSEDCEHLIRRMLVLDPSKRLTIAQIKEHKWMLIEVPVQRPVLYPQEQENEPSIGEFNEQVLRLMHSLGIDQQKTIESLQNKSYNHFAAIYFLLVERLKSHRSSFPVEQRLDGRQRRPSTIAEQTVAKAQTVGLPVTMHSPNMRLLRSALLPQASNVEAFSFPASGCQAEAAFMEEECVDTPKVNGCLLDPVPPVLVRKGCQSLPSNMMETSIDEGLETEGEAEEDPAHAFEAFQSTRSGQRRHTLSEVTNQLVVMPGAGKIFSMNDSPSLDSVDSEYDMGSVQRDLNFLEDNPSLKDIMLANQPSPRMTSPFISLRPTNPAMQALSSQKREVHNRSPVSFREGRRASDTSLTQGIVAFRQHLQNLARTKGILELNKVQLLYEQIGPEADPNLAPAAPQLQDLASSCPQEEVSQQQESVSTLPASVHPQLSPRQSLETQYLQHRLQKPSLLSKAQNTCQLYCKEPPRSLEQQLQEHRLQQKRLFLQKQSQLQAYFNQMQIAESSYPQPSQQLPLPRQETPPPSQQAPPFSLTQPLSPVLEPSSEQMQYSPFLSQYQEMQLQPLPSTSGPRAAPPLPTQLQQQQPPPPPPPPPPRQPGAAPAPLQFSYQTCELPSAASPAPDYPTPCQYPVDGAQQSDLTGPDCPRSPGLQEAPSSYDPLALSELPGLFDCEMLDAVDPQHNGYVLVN", "design": "dose or concentration left out as unconfirmed"}}, "data": [{"smiles": "Cc1cc2c(-c3ccc(NC(=O)[C@H](N)CC(C)(C)C)cc3C)ccnc2[nH]1", "note": "[Compound F-90, (2R)-2-Amino-4,4-dimethyl-N-[3-methyl-4-(2-methyl-1H-pyrrolo[2,3-b]pyridin-4-yl)phenyl]pentanamide]", "values": [{"measurement": "% Activity", "setting": "AMPKα1(h)", "result": 120, "unit": "%"}, {"measurement": "% Activity", "setting": "DYRK1A(h)", "result": 112, "unit": "%"}, {"measurement": "% Activity", "setting": "SIK(h)", "result": 105, "unit": "%"}, {"measurement": "% Activity", "setting": "CDK12/cyclinK(h)", "result": 89, "unit": "%"}, {"measurement": "% Activity", "setting": "HPK1(h)", "result": 73, "unit": "%"}, {"measurement": "% Activity", "setting": "BTK(h)", "result": 122, "unit": "%"}, {"measurement": "% Activity", "setting": "TAK1(h)", "result": 91, "unit": "%"}, {"measurement": "% Activity", "setting": "VRK1(h)", "result": 99, "unit": "%"}, {"measurement": "% Activity", "setting": "JNK3(h)", "result": 88, "unit": "%"}, {"measurement": "% Activity", "setting": "CaMKIIα(h)", "result": 88, "unit": "%"}, {"measurement": "% Activity", "setting": "FGFR1(h)", "result": 100, "unit": "%"}, {"measurement": "% Activity", "setting": "MLK2(h)", "result": 77, "unit": "%"}, {"measurement": "% Activity", "setting": "TAO1(h)", "result": 83, "unit": "%"}, {"measurement": "% Activity", "setting": "mTOR(h)", "result": 95, "unit": "%"}, {"measurement": "% Activity", "setting": "ATR/ATRIP(h)", "result": 110, "unit": "%"}, {"measurement": "% Activity", "setting": "CK2(h)", "result": 112, "unit": "%"}, {"measurement": "% Activity", "setting": "CK1γ3(h)", "result": 84, "unit": "%"}, {"measurement": "% Activity", "setting": "PASK(h)", "result": 72, "unit": "%"}, {"measurement": "% Activity", "setting": "DYRK2(h)", "result": 101, "unit": "%"}, {"measurement": "% Activity", "setting": "SRPK1(h)", "result": 95, "unit": "%"}, {"measurement": "% Activity", "setting": "CaMKIδ(h)", "result": 89, "unit": "%"}, {"measurement": "% Activity", "setting": "IRAK1(h)", "result": 95, "unit": "%"}, {"measurement": "% Activity", "setting": "SIK2(h)", "result": 109, "unit": "%"}]}]}
